According to ChEMBL document CHEMBL1201862, “PubChem BioAssay data set” (2004):
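Briefly, cells in 96-well plates were exposed to five compound concentrations for 48 h, and endpoints were estimated by linear interpolation. GI50 marks 50% less growth.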 Active and inactive are the calls of the source. Rule as the data show it: active = GI50 up to about 1.1 µM and inactive = higher.

Tests used:
Experiment in all cases: inhibition of tumour cell growth, NCI panel, 48 h
786-0 = system: 786-0
A549 = system: A549
ACHN = system: ACHN
CAKI-1 = system: CAKI-1
CCRF-CEM = system: CCRF-CEM
HCC 2998 = system: HCC 2998
MCF7 = system: MCF7
MDA-MB-435 = system: MDA-MB-435
MOLT-4 = system: MOLT-4
NCI-H23 = system: NCI-H23
OVCAR-3 = system: OVCAR-3
OVCAR-4 = system: OVCAR-4
RXF 393 = system: RXF 393
SR = system: SR
SW-620 = system: SW-620
UACC-62 = system: UACC-62
UO-31 = system: UO-31
T47D = system: T47D
BT-549 = system: BT-549

Structure (SMILES) | GI50 (786-0) | GI50 (A549) | GI50 (ACHN) | GI50 (CAKI-1) | GI50 (CCRF-CEM) | GI50 (HCC 2998) | GI50 (MCF7) | GI50 (MDA-MB-435) | GI50 (MOLT-4) | GI50 (NCI-H23) | GI50 (OVCAR-3) | GI50 (OVCAR-4) | GI50 (RXF 393) | GI50 (SR) | GI50 (SW-620) | GI50 (UACC-62) | GI50 (UO-31) | GI50 (T47D) | GI50 (BT-549)
CCOC(=O)/C(C(=S)Nc1ccccc1)=C(/N)N1CCCC1 | > 100 µM (inactive) | > 100 µM (inactive) | > 100 µM (inactive) | > 100 µM (inactive) | 46.1 µM (inactive) | > 100 µM (inactive) | 54.1 µM (inactive) | 37.9 µM (inactive) | > 100 µM (inactive) | > 100 µM (inactive) | > 100 µM (inactive) | > 100 µM (inactive) | 63.1 µM (inactive) | > 100 µM (inactive) | 48.9 µM (inactive) | > 100 µM (inactive) | > 100 µM (inactive) | – | –
O=[N+]([O-])c1cccc([N+](=O)[O-])c1Cl | 26.4 µM (inactive) | 14.9 µM (inactive) | 14.7 µM (inactive) | 3.18 µM (inactive) | – | 1.47 µM (inactive) | 4.24 µM (inactive) | 17.9 µM (inactive) | 3.56 µM (inactive) | 16.6 µM (inactive) | 1.29 µM (inactive) | 22.8 µM (inactive) | 17.7 µM (inactive) | 3.93 µM (inactive) | 17 µM (inactive) | 17.5 µM (inactive) | 1.32 µM (inactive) | 2.96 µM (inactive) | –
CSc1nc2c(c(N(C)C)n1)C(O)n1c(nc3ccccc31)S2 (configuration not stated) | 26.8 µM (inactive) | > 71.9 µM (inactive) | > 83.9 µM (inactive) | > 58.5 µM (inactive) | > 100 µM (inactive) | > 100 µM (inactive) | 47 µM (inactive) | > 100 µM (inactive) | > 100 µM (inactive) | 31.3 µM (inactive) | 29.2 µM (inactive) | 4.95 µM (inactive) | 21.3 µM (inactive) | – | > 100 µM (inactive) | > 85.9 µM (inactive) | > 50.2 µM (inactive) | 38.1 µM (inactive) | 67 µM (inactive)
CC(C)(CO)N1CCN(C(S)=Nc2ccccc2)CC1 | > 100 µM (inactive) | > 100 µM (inactive) | > 100 µM (inactive) | > 100 µM (inactive) | – | – | > 100 µM (inactive) | > 100 µM (inactive) | – | > 100 µM (inactive) | > 100 µM (inactive) | > 100 µM (inactive) | > 100 µM (inactive) | – | > 100 µM (inactive) | > 100 µM (inactive) | > 100 µM (inactive) | > 100 µM (inactive) | > 100 µM (inactive)
CCCCC1C=Cn2c(=O)oc3c(OC(C)C)c(OC(C)C)c(O)c1c32 (configuration not stated) | 20 µM (inactive) | 17.2 µM (inactive) | 36.6 µM (inactive) | 15.1 µM (inactive) | 8.49 µM (inactive) | – | 12.2 µM (inactive) | 12.5 µM (inactive) | 6.1 µM (inactive) | 12.2 µM (inactive) | 16.4 µM (inactive) | 21.5 µM (inactive) | – | – | 13.9 µM (inactive) | 13.4 µM (inactive) | 13.6 µM (inactive) | 4.44 µM (inactive) | 14.3 µM (inactive)
CC1=CC2(O)OC3(CC2=C(C)C)C(C)CCC13 (configuration not stated) | > 100 µM (inactive) | > 100 µM (inactive) | > 100 µM (inactive) | > 100 µM (inactive) | > 100 µM (inactive) | – | > 100 µM (inactive) | > 100 µM (inactive) | > 100 µM (inactive) | > 100 µM (inactive) | > 100 µM (inactive) | > 100 µM (inactive) | > 100 µM (inactive) | – | > 100 µM (inactive) | > 100 µM (inactive) | 44.4 µM (inactive) | > 100 µM (inactive) | > 100 µM (inactive)
CC(C)(C)NCc1cc(Nc2ccnc3cc(Cl)ccc23)cc(-c2ccc(Cl)cc2)c1O | 1.87 µM (inactive) | 5.4 µM (inactive) | 4.29 µM (inactive) | 2.99 µM (inactive) | 0.809 µM (active) | 2.21 µM (inactive) | 1.6 µM (inactive) | 1.91 µM (inactive) | 1.82 µM (inactive) | 3.64 µM (inactive) | 2.66 µM (inactive) | 3.36 µM (inactive) | 1.79 µM (inactive) | 1.21 µM (inactive) | 2.26 µM (inactive) | 1.92 µM (inactive) | 4.17 µM (inactive) | 3.27 µM (inactive) | –
CCC1C(c2cccc(OC)c2O)c2cc3c(cc2OC1N1CCCC1)OCO3 (configuration not stated) | 16.1 µM (inactive) | 17.4 µM (inactive) | 15 µM (inactive) | – | 12.6 µM (inactive) | 10 µM (inactive) | 22.2 µM (inactive) | 3.85 µM (inactive) | 12.8 µM (inactive) | 26.4 µM (inactive) | 13.8 µM (inactive) | – | – | 14.9 µM (inactive) | 12.2 µM (inactive) | 17.5 µM (inactive) | 14.1 µM (inactive) | 16.2 µM (inactive) | –
CC(=O)CC1CCC(=O)CCC(=O)OC(CC(C)=O)CCC(=O)CCC(=O)O1 (configuration not stated) | > 100 µM (inactive) | > 100 µM (inactive) | > 100 µM (inactive) | – | > 100 µM (inactive) | > 100 µM (inactive) | > 100 µM (inactive) | > 100 µM (inactive) | > 100 µM (inactive) | > 100 µM (inactive) | > 100 µM (inactive) | > 100 µM (inactive) | > 100 µM (inactive) | – | > 100 µM (inactive) | > 100 µM (inactive) | – | > 100 µM (inactive) | > 100 µM (inactive)
C/C(=C\C(=N\NC(=N)N)c1ccccc1)c1ccccc1 | 0.843 µM (active) | 0.577 µM (active) | 0.2 µM (active) | 0.149 µM (active) | 0.208 µM (active) | 0.26 µM (active) | 0.321 µM (active) | 1.24 µM (inactive) | 0.261 µM (active) | 0.354 µM (active) | 0.409 µM (active) | 0.321 µM (active) | 1.41 µM (inactive) | 2.18 µM (inactive) | 0.318 µM (active) | 1.15 µM (inactive) | – | 0.12 µM (active) | –
CCOC(=O)C(C)c1nc2ccc(C(F)(F)F)cc2[nH]c1=O (configuration not stated) | > 100 µM (inactive) | 73.5 µM (inactive) | > 100 µM (inactive) | > 10 µM (inactive) | 77.8 µM (inactive) | 65.2 µM (inactive) | 60.8 µM (inactive) | > 100 µM (inactive) | 50.2 µM (inactive) | 49.9 µM (inactive) | 28 µM (inactive) | 42.5 µM (inactive) | 64.3 µM (inactive) | – | > 100 µM (inactive) | 39.8 µM (inactive) | 36.2 µM (inactive) | 23.8 µM (inactive) | 42 µM (inactive)
COc1ccc(/N=N/c2c(O)ccc3ccccc23)cc1 | 61.8 µM (inactive) | 17.9 µM (inactive) | 20.4 µM (inactive) | > 100 µM (inactive) | > 100 µM (inactive) | – | – | > 100 µM (inactive) | > 100 µM (inactive) | 32.9 µM (inactive) | 28.6 µM (inactive) | 15.4 µM (inactive) | 41.2 µM (inactive) | 14.8 µM (inactive) | 86.1 µM (inactive) | 15.6 µM (inactive) | 31.3 µM (inactive) | – | 27.4 µM (inactive)
CC(C)(C)C1CCC2c3c([nH]c4ccccc34)C3C(=O)N(c4cc(Cl)ccc4Cl)C(=O)C3C2C1 (configuration not stated) | > 100 µM (inactive) | > 100 µM (inactive) | > 100 µM (inactive) | > 100 µM (inactive) | > 100 µM (inactive) | > 100 µM (inactive) | > 100 µM (inactive) | > 100 µM (inactive) | > 100 µM (inactive) | > 100 µM (inactive) | > 100 µM (inactive) | – | > 100 µM (inactive) | > 10 µM (inactive) | 5.85 µM (inactive) | > 100 µM (inactive) | > 100 µM (inactive) | – | > 100 µM (inactive)
N#Cc1c(O)c2ccccc2[nH]c1=O | > 100 µM (inactive) | > 100 µM (inactive) | > 100 µM (inactive) | > 100 µM (inactive) | > 100 µM (inactive) | > 100 µM (inactive) | > 100 µM (inactive) | > 100 µM (inactive) | > 100 µM (inactive) | > 100 µM (inactive) | > 100 µM (inactive) | > 100 µM (inactive) | > 100 µM (inactive) | – | > 100 µM (inactive) | > 100 µM (inactive) | > 100 µM (inactive) | > 100 µM (inactive) | –
BrCCCCCOc1ccc(-c2c3ccccc3c(-c3ccc(OCCCCCBr)cc3)c3ccccc23)cc1 | > 100 µM (inactive) | > 100 µM (inactive) | > 100 µM (inactive) | > 100 µM (inactive) | > 100 µM (inactive) | > 100 µM (inactive) | > 100 µM (inactive) | > 100 µM (inactive) | > 100 µM (inactive) | – | – | > 100 µM (inactive) | > 100 µM (inactive) | > 100 µM (inactive) | > 100 µM (inactive) | > 100 µM (inactive) | > 100 µM (inactive) | > 100 µM (inactive) | –
CCOC(=O)c1c(SC(=O)/C=C/c2ccccc2)n(-c2ccccc2)c(=S)n(-c2ccccc2)c1=O | > 100 µM (inactive) | > 100 µM (inactive) | > 100 µM (inactive) | > 100 µM (inactive) | > 100 µM (inactive) | > 100 µM (inactive) | > 100 µM (inactive) | > 100 µM (inactive) | > 100 µM (inactive) | > 100 µM (inactive) | > 100 µM (inactive) | > 100 µM (inactive) | > 100 µM (inactive) | > 100 µM (inactive) | > 100 µM (inactive) | > 100 µM (inactive) | – | > 100 µM (inactive) | –
